Tests used:
[1] = system: auricle edema induced by arachidonic acid; experiment: Inhibitory activity on auricle edema induced by arachidonic acid; assay type: in vivo, ddY mice; settings: mouse, oral, 1 hour after arachidonic acid
Procedure: EXPERIMENT 5: INHIBITORY ACTIVITY ON AURICLE EDEMA INDUCED BY ARACHIDONIC ACID
[…]. Dermatol. 82, p. 367, 1984. The mice were orally administered with a test drug suspended in 0 5% CMC-Na, and after one hour, 10 μl of arachidonic acid in acetone (50 mg/ml) were applied to front and back surfaces of the left auricles of each mouse. One hours later, the thicknesses of the left and right auricles were measured by means of a dial gauge, and the rate of edema of the left auricle was calculated in comparison with the right auricle (normal). Inhibitory rate of each drug-treated group against edema formation was calculated in comparison with the solvent-treated control.

[2] = system: lipid peroxidation (crude homogenate prepared from brain tissues of Wistar rats); experiment: Inhibitory activity on lipid peroxidation (anti-oxidation activity); assay type: biochemical; settings: rat brain homogenate, 37° C., 30 minutes; malondialdehyde, 532 nm
Procedure: EXPERIMENT 1: INHIBITORY ACTIVITY ON LIPID PEROXIDATION (ANTI-OXIDATION ACTIVITY)
The captioned activity was evaluated according to the method described by Kakihana et al., Nihon Yakurigaku Zasshi (Folia Pharmacologica Japonica), 80, p. 225, 1982. To a 1 ml of a crude homogenate prepared from brain tissues of Wistar rats, 10 μl of a solution of test drug in dimethyl sulfoxide was added, and after pre-incubation under ice-cooling for 10 minutes, the mixture was subjected to a reaction at 37° C. for 30 minutes. The reaction was stopped by adding 200 μl of 35% perchloric acid to the mixture and then the mixture was centrifuged. To a 1 ml of the supernatant obtained, 0.5 ml of 0.5% thiobarbituric acid was added and the mixture was heated under a boiling water bath for 15 minutes. The mixture was cooled to room temperature and absorbance of the mixture at 532 nm was measured. The inhibitory rate was obtained using the amount of malondialdehyde generated by the solvent-treated control, which equals to 100%, and 50% median inhibitory concentration (IC50) was calculated according to the probit method as indexes of anti-oxidation activity.

[3] = system: paw edema induced by carageenin; experiment: Inhibitory activity on paw edema induced by carageenin; assay type: in vivo, Wistar rats; settings: rat, oral, 10 mg/kg, 3 hours after carageenin
Procedure: EXPERIMENT 4: INHIBITORY ACTIVITY ON PAW EDEMA INDUCED BY CARAGEENIN
Wistar rats (body weight: 110-130 g) starved overnight were orally administered with a test drug suspended in 0.5% CMC-Na, and after one hour, 0.1 ml of 1% carageenin solution (picnin-A, Zushi Kagaku) was subcutaneously injected into the right hind leg paw of each rat. Three hours later, the volume of the paw was determined by means of a plethysmometer (Model 7150, Ugo Basile Co.,Ltd.) and the rate of edema was evaluated in comparison with the volume of the paw before the carageenin injection as 100%. Inhibitory rate of each drug-treated group against edema formation was calculated in comparison with the solvent-treated control.

[4] = system: auricle edema induced by oxazolone; experiment: Effect on auricle edema induced by oxazolone (delayed allergy); assay type: in vivo, ICR mice; settings: mouse, oral, 10 mg/kg × 2 (30 minutes before, 6 hours after), 24 hours
Procedure: EXPERIMENT 6: EFFECT ON AURICLE EDEMA INDUCED BY OXAZOLONE (DELAYED ALLERGY)
[…]. The mice were sensitized by the application of 0.1 ml of 0.5% oxazolone in ethanol to shaven abdominal skin. Five days later, inflammation was induced by applying 10 μl of 0.5% oxazolone in acetone to front and back surfaces Of the right auricle. After 24 hours, the thicknesses of the left and right auricles were measured by a dial gauge, and the rate of edema of the right auricle was calculated in comparison with the left auricle (normal). A test drug was suspended in 0.5% CMC--Na and orally administered twice to each mouse , i.e., 30 minutes before and 6 hours after the inflammation-inducing treatment. Inhibitory rate of each drug-treated group against edema was calculated in comparison with the solvent-treated control.

cyclooxygenase = target: T1, cyclooxygenase (Ovis aries, UniProt P05979); experiment: Inhibitory activity on cyclooxygenase; assay type: biochemical; settings: PGE2 generation, sheep seminal vesicle microsome, 16 μM 14C-arachidonic acid, pH 8.3
T1 construct: Sheep seminal vesicle microsome fraction (Funakoshi) was used as an enzyme sample; purchased Funakoshi; host or cells: sheep seminal vesicle microsome fraction
T1 sequence (P05979 25-600): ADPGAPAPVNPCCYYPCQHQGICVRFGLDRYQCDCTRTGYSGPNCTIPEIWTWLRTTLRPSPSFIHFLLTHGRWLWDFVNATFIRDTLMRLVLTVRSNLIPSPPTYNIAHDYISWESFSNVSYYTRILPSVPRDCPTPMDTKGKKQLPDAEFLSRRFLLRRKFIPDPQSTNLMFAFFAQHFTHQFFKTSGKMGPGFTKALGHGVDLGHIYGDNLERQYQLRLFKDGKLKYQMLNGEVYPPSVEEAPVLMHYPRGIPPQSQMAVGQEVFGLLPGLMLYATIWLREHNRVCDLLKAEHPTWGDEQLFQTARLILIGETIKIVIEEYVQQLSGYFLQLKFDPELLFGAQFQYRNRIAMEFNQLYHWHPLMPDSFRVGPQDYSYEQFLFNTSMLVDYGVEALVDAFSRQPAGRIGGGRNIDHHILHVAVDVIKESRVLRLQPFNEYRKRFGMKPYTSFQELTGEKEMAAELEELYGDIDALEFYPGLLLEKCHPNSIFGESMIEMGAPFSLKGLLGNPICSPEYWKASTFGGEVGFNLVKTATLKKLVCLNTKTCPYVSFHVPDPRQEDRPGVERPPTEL
Procedure: EXPERIMENT 3: INHIBITORY ACTIVITY ON CYCLOOXYGENASE
Sheep seminal vesicle microsome fraction (Funakoshi) was used as an enzyme sample. A solution of a test drug was mixed with a reaction solution (3 μM epinephrine, 3 mM glutathione, and the enzyme fraction in 100 mM Tris-HCI buffer, pH 8.3). The mixture was pre-incubated at 37° C. for 5 minutes, and then 16 μ M^14 C-arachidonic acid was added to the mixture, which was allowed to react for 3 minutes. After the completion of the reaction, the product was immediately extracted, dissolved in chloroform/methanol (2:1) and developed by thin-layer chromatography. Radioactivity of the prostaglandin E2 (PGE2) fraction was measured using a liquid scintillation counter. Inhibitory rate of each drug-treated group against PGE2 generation was obtained in comparison with the solvent-treated control, and IC50 was calculated according to the probit method.

granuloma formation = experiment: Inhibitory activity on granuloma formation (proliferative inflammation); assay type: in vivo, Wistar rats; settings: rat, oral, 10 mg/kg every day for 8 days
Procedure: EXPERIMENT 7: INHIBITORY ACTIVITY ON GRANULOMA FORMATION (PROLIFERATIVE INFLAMMATION)
Evaluation was carried out by using Wistar rats (120-140 g) according to the method described by Fujiyoshi et al., Nihon Yakurigaku Zasshi (Folia Pharmacologica Japonica), 87, p. 379, 1986. Back skin of the rat was lightly incised under anesthesia with pentobarbital, and filter paper discs for antibiotic assay (57 mg, 13.0.phi., Whatman) sterilized by autoclave were embedded under the skin at the both axillae. 0.1 ml of a mixture of streptomycin and penicillin G (each 1 mg/ml) was administered dropwise to the incised site and the incised skin was sutured. From the day of the disc embedment, a test drug suspended in 0.5% CMC--Na was orally administered to the rat every day for 8 days. The rat was sacrificed at the day of last administration and granuloma including the filter paper was extirpated from the circumferential tissue and dried at 110° C. overnight. The dry weight of the granuloma was measured and inhibitory rate of each drug-treated group against granulation formation was calculated in comparison with the solvent-treated control.

ddY mice = experiment: Acute toxicity; assay type: in vivo; settings: mouse, oral, 600 mg/kg, observed for 2 weeks
Source text: EXPERIMENT 9: ACUTE TOXICITY

5-lipoxygenase = target: T2, 5-lipoxygenase (Cavia porcellus, UniProt A0A286X958); experiment: Inhibitory activity on 5-lipoxygenase; assay type: biochemical, guinea pigs; settings: 5-HETE generation, 20 μM 14C-arachidonic acid, pH 7.4, 37° C., 10 minutes
T2 construct: crude enzyme fraction prepared from peritoneal exudated cells of guinea pigs; endogenous in cells; host or cells: guinea pig peritoneal exudate cells (induced by intraperitoneal casein), crude enzyme fraction
T2 sequence (A0A286X958 1-674): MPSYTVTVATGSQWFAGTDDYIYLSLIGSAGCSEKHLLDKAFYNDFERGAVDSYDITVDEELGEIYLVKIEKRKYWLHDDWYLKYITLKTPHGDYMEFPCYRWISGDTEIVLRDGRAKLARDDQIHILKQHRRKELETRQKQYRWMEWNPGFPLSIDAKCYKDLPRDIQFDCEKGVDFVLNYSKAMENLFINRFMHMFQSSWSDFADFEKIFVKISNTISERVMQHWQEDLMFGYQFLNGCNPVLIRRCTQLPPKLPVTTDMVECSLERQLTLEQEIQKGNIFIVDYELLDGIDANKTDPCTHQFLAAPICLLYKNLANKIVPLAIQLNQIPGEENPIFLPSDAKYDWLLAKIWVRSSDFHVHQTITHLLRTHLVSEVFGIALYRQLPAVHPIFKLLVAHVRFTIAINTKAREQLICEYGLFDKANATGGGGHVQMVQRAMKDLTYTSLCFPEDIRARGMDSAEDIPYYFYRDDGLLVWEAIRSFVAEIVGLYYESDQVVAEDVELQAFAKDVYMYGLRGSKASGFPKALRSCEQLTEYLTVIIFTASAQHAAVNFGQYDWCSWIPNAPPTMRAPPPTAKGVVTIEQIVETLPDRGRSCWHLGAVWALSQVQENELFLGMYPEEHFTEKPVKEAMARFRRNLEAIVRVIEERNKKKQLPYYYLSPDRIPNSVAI
Procedure: EXPERIMENT 2: INHIBITORY ACTIVITY ON 5-LIPOXYGENASE
5-Lipoxygenase activity was determined according to the method described by Ochi et al., J. Biol. Chem.,258, p. 5754, 1983 using a crude enzyme fraction prepared from peritoneal exudated cells of guinea pigs which were induced by intraperitoneal injection of 2% case in solution. A solution of a test drug was mixed with a reaction solution (2mM ATP, 1 mM glutathione,and the enzyme fraction in 50 mM phosphate buffer, PH 7.4) and the mixture was pre-incubated at 37° C. for 5 minutes. Calcium chloride (1 mM) and 20 μM^14 C-arachidonic acid were added to the mixture, and then the mixture was subjected to a reaction at 37° C. for 10 minutes. After the completion of the reaction, the product was immediately extracted, dissolved in chloroform/methanol (2:1), and developed by thin-layer chromatography. Radioactivity of the 5-hydroxyeicosatetraenoic acid (5-HETE) fraction was measured using a liquid scintillation counter. Inhibitory rate of each drug-treated group against 5-HETE generation was obtained in comparison with the solvent-treated control, and IC50 was calculated according to the probit method.

IC50 [2] | IC50 (cyclooxygenase) | SMILES | Inhibition on Edema (%) ([1]; 30 mg/kg) | also measured
4.83 µM |  | CC(C)c1cc(-c2cc(-c3ccccc3)c(-c3ccccc3)o2)n(CC(=O)O)c1 [Compound 117] |  | Inhibition on Edema (%) [3]: 50.9%
 | 0.082 µM | COc1ccc(-c2oc(-c3cccn3CC(=O)O)cc2-c2ccccc2)cc1 [Compound 150] |  | 
2.73 µM |  | CCc1ccc(-c2cc(-c3ccc(OC)cc3)c(-c3ccc(C)cc3)o2)n1CC(=O)O [Compound 165] |  | 
4.49 µM | 0.111 µM | COc1ccc(-c2cc(-c3cccn3C(C)C(=O)O)oc2-c2ccc(OC)cc2)cc1 (stereo not drawn) [Compound 176] | 30.6% | Inhibition on Granuloma (%) (granuloma formation): 32.4%; Inhibition on Edema (%) [4]: 56.4%
3.24 µM |  | COc1ccc(-c2cc(-c3cccn3CCC(=O)O)oc2-c2ccc(OC)cc2)cc1 [Compound 178] |  | 
2.2 µM | 0.095 µM | CCc1cc(-c2cc(-c3ccc(OC)cc3)c(-c3ccc(OC)cc3)o2)n(CC(=O)O)c1 [Compound 185] |  | IC50 (5-lipoxygenase): 1 µM
2.44 µM |  | CCOc1ccc(-c2cc(-c3ccc(CC)n3CC(=O)O)oc2-c2ccc(OCC)cc2)cc1 [Compound 217] |  | 

More lines, now with the values behind:

SMILES | IC50 [2] | IC50 (cyclooxygenase) | Inhibition on Edema (%) ([1]; 30 mg/kg) | also measured
O=C(O)Cn1cccc1-c1cc(-c2ccccc2)c(-c2ccccc2)o1 [Compound 114] |  |  | 41.9% | 
COc1ccc(-c2cc(-c3cc(C(C)C)cn3CC(=O)O)oc2-c2ccccc2)cc1 [Compound 142] |  |  |  | Inhibition on Edema (%) [4]: 62.2%; Inhibition on Edema (%) [3]: 45.4%
COc1ccc(-c2cc(-c3cccn3CC(=O)O)oc2-c2ccc(OC)cc2)cc1 [Compound 175] | 3.63 µM | 0.069 µM | 50.6% | Inhibition on Granuloma (%) (granuloma formation): 32.2%; Dead Mice/Total Mice (ddY mice): 1/5; Inhibition on Edema (%) [4]: 52.1%; Inhibition on Edema (%) [3]: 44.1%
COc1ccc(-c2oc(-c3cccn3CC(=O)O)c(C)c2-c2ccc(OC)cc2)cc1 [Compound 184] | 3.13 µM | 0.075 µM |  | 
COc1ccc(-c2cc(-c3cc(C(C)C)cn3CC(=O)O)oc2-c2ccc(OC)cc2)cc1 [Compound 188] | 2.41 µM |  | 55.0% | IC50 (5-lipoxygenase): 1.11 µM; Inhibition on Granuloma (%) (granuloma formation): 29.7%; Dead Mice/Total Mice (ddY mice): 4/5; Inhibition on Edema (%) [4]: 44.2%
COc1ccc(-c2cc(-c3ccc(C)n3CC(=O)O)oc2-c2ccc(OC)cc2)cc1 [Compound 192] |  | 0.057 µM |  | IC50 (5-lipoxygenase): 0.91 µM; Dead Mice/Total Mice (ddY mice): 0/5; Inhibition on Edema (%) [3]: 38.4%
CCCc1ccc(-c2cc(-c3ccc(OC)cc3)c(-c3ccc(OC)cc3)o2)n1CC(=O)O [Compound 195] |  |  | 43.9% | IC50 (5-lipoxygenase): 0.91 µM
CC(C)Cc1ccc(C(C)C(=O)O)cc1 (stereo not drawn) [Ibuprofen, reference compound] |  |  |  | Inhibition on Edema (%) ([1]; 100 mg/kg): 0%

— patent US5321041A, “Diphenylpyrrolylfuran derivatives” (Nihon Iyakuhin Kogyo Co., Ltd., priority 1992, dated 1994)
